# Assay results as given in patent US20260130933A1, “PHARMACEUTICAL COMPOSITION FOR PREVENTION OR TREATMENT OF NEPHROPATHY AND/OR DIABETES MELLITUS, COMPRISING ENAVOGLIFLOZIN” (DAEWOONG PHARMACEUTICAL CO., LTD., priority 2022, published 2026).
# Test: Example 3: phase 3 trial, enavogliflozin 0.3 mg vs dapagliflozin 10 mg once a day for 24 weeks added to metformin and gemigliptin in patients with type 2 diabetes (same endpoints, rescue drug)
# Format: in vivo, human
# Procedure: 1) when Metformin (≥1,000 mg/Day) was Administered at a Constant Dose for at Least 8 Weeks Prior to Pre-Visit (Pre-Screening) • Metformin (≥1,000 mg/day) and gemigliptin (50 mg/day) were co-administered during the 8-week stabilization period. […] 4) when Metformin (≥1,000 mg/Day) and Gemigliptin (50 mg/Day) were Co-Administered at Constant Doses for at Least 8 Weeks Prior to Pre-Visit (Prescreening) • Without a separate stabilization period, Pre-visit (pre-screening) was Visit 1 (screening).
# Subjects who met the inclusion/exclusion criteria continued to receive metformin and gemigliptin while receiving a placebo of the clinical trial drug in a single-blind (subject-blinded) state for a 2-week run-in period.
# Here, the randomized subjects were stratified according to the administration therapy (co-administration with two or less agents (one or two agents) or three or more agents) of a conventional hypoglycemic agent (before washout of another hypoglycemic agent) within 24 weeks prior to obtaining written informed consent and by an HbA1c value (<8% or ≥8%) at Visit 1 (screening) measured in the central laboratory.
# The randomized subjects were administered two tablets of the clinical trial drug corresponding to each administration group once a day, and then visited the institution at weeks 6, 12, 18, and 24 during the 24-week administration period to conduct efficacy and safety assessments. In addition, during the clinical trial period, they were instructed to exercise regularly and control their diet without changing their daily life patterns.
# • 1) Change in HbA1c at week 24 after administration of clinical trial drug compared to Visit 2 (randomization)
# • 1) Change in HbA1c at each time point of weeks 6, 12, and 18 after administration of clinical trial drug compared to Visit 2 (randomization) • 2) Change in FPG at each time point of weeks 6, 12, 18, and 24 after administration of clinical trial drug compared to Visit 2 (randomization) • 3) Proportion of subjects achieving HbA1c<7% at each time point of weeks 6, 12, 18, and 24 after administration of clinical trial drug • 4) Proportion of subjects achieving HbA1c<6.5% at each time point of weeks 6, 12, 18, and 24 after administration of clinical trial drug • 5) Proportion of subjects achieving therapeutic response (HbA1c change (HbA1c at Visit 2—HbA1c at each evaluation time point)>0.5% or HbA1c<7% at each evaluation time point compared to Visit 2 (randomization)) at each time point of weeks 6, 12, 18, and 24 after administration of clinical trial drug • 6) Proportion of subjects achieving therapeutic response (HbA1c change (HbA1c at Visit 2—HbA1c at each evaluation time point)>0.7% or HbA1c<7% at each evaluation time point compared to Visit 2 (randomization)) at each time point of weeks 6, 12, 18, and 24 after administration of clinical trial drug • 7) Proportion of subjects achieving therapeutic response (HbA1c change (HbA1c at Visit 2—HbA1c at each evaluation time point)>1% or HbA1c<7% at each evaluation time point compared to Visit 2 (randomization)) at each time point of weeks 6, 12, 18, and 24 after administration of clinical trial drug
# [1] = week 12, per-protocol set, enavogliflozin 0.3 mg, dapagliflozin 10 mg
# [2] = week 18, modified per-protocol set 1, enavogliflozin 0.3 mg, dapagliflozin 10 mg
# [3] = week 18, modified per-protocol set 2
# [4] = week 18, modified per-protocol set 2, enavogliflozin 0.3 mg, dapagliflozin 10 mg
smiles,measurement,setting,value
"CCOc1ccc(Cc2cc([C@@H]3O[C@H](CO)[C@@H](O)[C@H](O)[C@H]3O)ccc2Cl)cc1 [Dapagliflozin, reference compound]","Subjects achieving HbA1c target of <7%, %",[1],63.41%
same,"body weight, Median",[1],63.20 kg
same,"Subjects achieving therapeutic glycemic response 1, %","week 12, per-protocol set, response 1 = HbA1c change >0.5% or HbA1c <7%, enavogliflozin 0.3 mg, dapagliflozin 10 mg",89.43%
same,"Subjects achieving therapeutic glycemic response 2, %","week 12, per-protocol set, response 2 = HbA1c change >0.7% or HbA1c <7%, enavogliflozin 0.3 mg, dapagliflozin 10 mg",82.11%
same,"Subjects achieving therapeutic glycemic response 3, %","week 12, per-protocol set, response 3 = HbA1c change >1% or HbA1c <7%, enavogliflozin 0.3 mg, dapagliflozin 10 mg",73.98%
same,"FPG change from baseline, LS mean (SE)",week 18,−23.55(1.59) mg/dL
same,"HDL-C change from baseline, LS mean (SE)",week 18,3.42(0.62) mg/dL
same,"HOMA-IR change from baseline, LS mean (SE)",week 18,−1.01(0.11)
same,"HOMA-β change from baseline, LS mean (SE)",week 18,4.49(2.22)
same,"HbA1c change from baseline, LS mean (SE)",week 18,−0.75(0.04) % p
same,"LDL-C change from baseline, LS mean (SE)",week 18,1.38(1.59) mg/dL
same,"UACR change from baseline, LS mean (SE)",week 18,−8.90(3.79) g/kg
same,"UGCR change from baseline, LS mean (SE)",week 18,45.40(2.27) mg/mg
same,"adiponectin change from baseline, LS mean (SE)",week 18,0.36(0.32) μg/mL
same,"body weight change from baseline, LS mean (SE)",week 18,−3.01(0.23) kg
same,"diastolic blood pressure change from baseline, LS mean (SE)",week 18,−2.42(0.68) mmHg
same,"fasting C-peptide change from baseline, LS mean (SE)",week 18,−0.06(0.02) ng/mL
same,"leptin change from baseline, LS mean (SE)",week 18,−1.06(0.51) ng/ml
same,"systolic blood pressure change from baseline, LS mean (SE)",week 18,−5.16(0.88) mmHg
same,"total cholesterol change from baseline, LS mean (SE)",week 18,3.66(1.88) mg/dL
same,"triglyceride change from baseline, LS mean (SE)",week 18,−12.39(4.34) mg/dL
same,"Change from baseline in HDL-C, ANCOVA LS mean",[2],3.42 mg/dL
same,"Change from baseline in HDL-C, Mean",[2],3.57 mg/dL
same,"Change from baseline in HDL-C, Median",[2],3.00 mg/dL
same,"Change from baseline in LDL-C, ANCOVA LS mean",[2],1.38 mg/dL
same,"Change from baseline in LDL-C, Mean",[2],0.93 mg/dL
same,"Change from baseline in LDL-C, Median",[2],1.50 mg/dL
same,"Change from baseline in total cholesterol, ANCOVA LS mean",[2],3.66 mg/dL
same,"Change from baseline in total cholesterol, Mean",[2],2.51 mg/dL
same,"Change from baseline in total cholesterol, Median",[2],1.00 mg/dL
same,"Change from baseline in triglycerides, ANCOVA LS mean",[2],-12.39 mg/dL
same,"Change from baseline in triglycerides, Mean",[2],-17.31 mg/dL
same,"Change from baseline in triglycerides, Median",[2],-8.50 mg/dL
same,"Fasting HDL-C, Mean",[2],50.99 mg/dL
same,"Fasting HDL-C, Median",[2],51.00 mg/dL
same,"Fasting LDL-C, Mean",[2],78.33 mg/dL
same,"Fasting LDL-C, Median",[2],73.00 mg/dL
same,"Fasting total cholesterol, Mean",[2],146.31 mg/dL
same,"Fasting triglycerides, Mean",[2],115.18 mg/dL
same,"Fasting triglycerides, Median",[2],103.00 mg/dL
same,"fasting Total cholesterol, Median",[2],141.00 mg/dL
same,"Change from baseline in diastolic blood pressure, ANCOVA LS mean",[3],−2.42 mmHg
same,"Change from baseline in diastolic blood pressure, Mean",[3],−2.12 mmHg
same,"Change from baseline in diastolic blood pressure, Median",[3],−2.00 mmHg
same,"Diastolic blood pressure, Mean",[3],71.75 mmHg
same,"Diastolic blood pressure, Median",[3],71.00 mmHg
same,"Change from baseline in systolic blood pressure, ANCOVA LS mean",[4],−5.16 mmHg
same,"Change from baseline in systolic blood pressure, Mean",[4],−4.63 mmHg
same,"Change from baseline in systolic blood pressure, Median",[4],−4.00 mmHg
same,"Systolic blood pressure, Mean",[4],119.31 mmHg
same,"Systolic blood pressure, Median",[4],118.00 mmHg
